The record followed here is patent US20060074243A1, “Hydroxamic acid and amide compounds and their use as protease inhibitors” (Pharmacia Corporation, priority 2002, published 2006).

What is called Ki is the dissociation constant of the complex between target and ligand, obtained from inhibition or displacement.

Common to all, as to experiment: In vitro MMP inhibition analysis (fluorogenic peptide substrate cleavage), Ki
Common to all, as to assay type: biochemical
Common to all, as to details: Table 2

The target of one test is T1, Human recombinant MMP-1 (Homo sapiens, UniProt P03956).
T1 construct: made in house; host or cells: MMP-1-transfected HT-1080 cells (spent media)
T1 sequence (P03956 100-469): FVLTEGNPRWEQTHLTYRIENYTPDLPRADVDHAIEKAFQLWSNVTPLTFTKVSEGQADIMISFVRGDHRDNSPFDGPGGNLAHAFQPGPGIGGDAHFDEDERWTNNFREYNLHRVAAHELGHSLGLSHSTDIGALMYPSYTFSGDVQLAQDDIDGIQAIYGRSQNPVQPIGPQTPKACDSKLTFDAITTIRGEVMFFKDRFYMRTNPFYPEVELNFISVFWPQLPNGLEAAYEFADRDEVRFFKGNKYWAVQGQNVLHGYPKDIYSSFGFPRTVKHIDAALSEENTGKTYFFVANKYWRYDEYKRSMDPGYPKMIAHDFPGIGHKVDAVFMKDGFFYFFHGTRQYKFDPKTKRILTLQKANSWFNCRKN
The method, boiled down:
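APMA- or trypsin-activated recombinant human MMP-1 (purified from transfected HT-1080 medium) with 4 μM MCA/Dpa quenched fluorogenic peptide, 1 h at room temperature in Tris/NaCl/CaCl2 buffer pH 7.5; fluorescence ex 330/em 420 nm. Ki from Morrison-equation fit of rates, substrate at or below Km, uncorrected.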

The next test deals with T2, Human recombinant MMP-2 (Homo sapiens, UniProt P08253).
T2 construct: made in house; host or cells: MMP-2-transfected p2AHT2 cells
T2 sequence (P08253 110-660): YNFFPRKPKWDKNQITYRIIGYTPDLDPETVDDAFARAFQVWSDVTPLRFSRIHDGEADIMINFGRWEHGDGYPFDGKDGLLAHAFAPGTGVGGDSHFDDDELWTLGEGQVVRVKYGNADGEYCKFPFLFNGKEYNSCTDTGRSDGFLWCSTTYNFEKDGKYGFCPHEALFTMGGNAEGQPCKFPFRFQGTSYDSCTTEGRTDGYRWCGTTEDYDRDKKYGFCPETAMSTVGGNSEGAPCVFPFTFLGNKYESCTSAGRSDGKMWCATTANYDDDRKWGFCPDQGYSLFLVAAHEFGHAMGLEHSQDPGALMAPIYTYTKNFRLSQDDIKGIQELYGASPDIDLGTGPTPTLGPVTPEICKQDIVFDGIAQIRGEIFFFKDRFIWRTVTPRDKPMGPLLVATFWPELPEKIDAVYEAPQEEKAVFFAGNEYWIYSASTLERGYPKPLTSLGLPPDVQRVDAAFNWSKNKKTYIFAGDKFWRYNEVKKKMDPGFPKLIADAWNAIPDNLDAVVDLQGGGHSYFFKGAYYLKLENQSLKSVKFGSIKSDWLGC
The method, boiled down: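 Human recombinant MMP-2 from transfected p2AHT2 cells was activated with APMA or trypsin and incubated 1 h at room temperature with compounds and 4 μM MCA-RPLGL(Dpa)ARER-NH2. Buffer was pH 7.5 Tris/NaCl/CaCl2, and fluorescence was read at ex 330/em 420 nm. Ki was fitted by Morrison's equation without substrate correction.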

The target in a further test is T3, Human recombinant MMP-9 (Homo sapiens, UniProt P14780).
T3 construct: made in house; host or cells: MMP-9-transfected HT1080 cells (spent media)
T3 sequence (P14780 107-707 limits assumed): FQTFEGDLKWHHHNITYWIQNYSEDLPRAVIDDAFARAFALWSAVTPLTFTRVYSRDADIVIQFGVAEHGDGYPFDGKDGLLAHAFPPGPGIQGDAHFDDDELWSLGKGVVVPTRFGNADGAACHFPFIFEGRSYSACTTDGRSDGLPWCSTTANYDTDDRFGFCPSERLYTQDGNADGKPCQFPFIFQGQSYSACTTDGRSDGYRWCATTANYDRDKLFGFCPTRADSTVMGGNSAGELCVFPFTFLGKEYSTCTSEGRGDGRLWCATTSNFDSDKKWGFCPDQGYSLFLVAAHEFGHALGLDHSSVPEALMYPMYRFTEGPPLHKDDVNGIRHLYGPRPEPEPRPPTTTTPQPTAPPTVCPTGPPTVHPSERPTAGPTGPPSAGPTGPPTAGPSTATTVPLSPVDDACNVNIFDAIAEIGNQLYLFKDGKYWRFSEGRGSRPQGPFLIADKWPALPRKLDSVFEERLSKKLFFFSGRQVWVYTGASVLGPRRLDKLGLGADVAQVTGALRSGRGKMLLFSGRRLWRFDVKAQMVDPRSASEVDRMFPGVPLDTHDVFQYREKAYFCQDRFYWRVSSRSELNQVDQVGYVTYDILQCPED
The method, boiled down:
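Recombinant MMP-9 purified from transfected HT1080 cell media, activated with APMA, trypsin or recombinant MMP-3, assayed in Tris buffer pH 7.5 with CaCl2 and 4 μM fluorogenic MCA/Dpa peptide, 1 h at room temperature (ex 330/em 420 nm). Ki from Morrison-equation regression of velocity; substrate at or below Km, uncorrected.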

The target in a further test is T4, Human recombinant MMP-14 (Homo sapiens, UniProt P50281).
T4 construct: The catalytic domain enzyme was expressed in E. coli inclusion bodies, solubilized in urea; made in house
The method, boiled down:
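Refolded catalytic domain of MMP-14 expressed in E. coli, activated with APMA or trypsin, incubated 1 h at room temperature with 4 μM MCA-peptide substrate in Tris buffer pH 7.5 with CaCl2. Cleavage rate followed by fluorescence (ex 330/em 420 nm). Ki from Morrison-equation fit; substrate at or below Km, so no substrate correction.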

`CC(C)Cc1ccc(-c2ccc(S(=O)(=O)C3(C(=O)NO)CCOCC3)cc2)nc1` [Example 103]: the Ki on Human recombinant MMP-1 came to 2320 nM; on Human recombinant MMP-2, 0.278 nM; on Human recombinant MMP-9 it was 1.38 nM; on Human recombinant MMP-14, 342 nM.

`CCN1CCC(C(=O)NO)(S(=O)(=O)c2ccc(-c3ccc(OCCOC)c(F)c3)cc2)CC1` [Example 110]: the Ki on Human recombinant MMP-1 was greater than 10000 nM; at Human recombinant MMP-2, 0.539 nM; on Human recombinant MMP-9, 11.2 nM; at Human recombinant MMP-14, 1850 nM.

As to `COC(C)CCOc1ccc(-c2ccc(S(=O)(=O)C3(C(=O)NO)CCOCC3)cc2)cc1C(F)(F)F` (stereo not shown) [Example 100], the Ki on Human recombinant MMP-1 is greater than 10000 nM; at Human recombinant MMP-2, 32.5 nM; at Human recombinant MMP-9, 849 nM; at Human recombinant MMP-14, greater than 10000 nM.

As to `COCCN1CCC(C(=O)NO)(S(=O)(=O)c2ccc(-c3ccc(OCCN4CCCC4)cc3)cc2)CC1` [Example 72], the Ki was greater than 10000 nM at Human recombinant MMP-1, 5.81 nM on Human recombinant MMP-2, 12.9 nM on Human recombinant MMP-9 and 2280 nM at Human recombinant MMP-14.

For the compound `CCCCCc1ccc(-c2ccc(S(=O)(=O)C3(C(=O)NO)CCOCC3)cc2)c(F)c1` [Example 101], the Ki on Human recombinant MMP-1 came out at 9030 nM; at Human recombinant MMP-2, 0.878 nM; at Human recombinant MMP-9 it was 3.05 nM; on Human recombinant MMP-14, 929 nM.

As to `O=C(NO)C1(S(=O)(=O)c2ccc(-c3cnccn3)cc2)CCOCC1` [Example 71], the Ki on Human recombinant MMP-1 was determined as 2960 nM; at Human recombinant MMP-2 it was 5.96 nM; at Human recombinant MMP-9, 42.8 nM; on Human recombinant MMP-14 it was 224 nM.

For `CC(C)CCc1ccc(-c2ccc(S(=O)(=O)C3(C(=O)NO)CCOCC3)cc2)nc1` [Example 99], the inhibition constant Ki on Human recombinant MMP-1 was found to be 3080 nM; at Human recombinant MMP-2, 0.112 nM; at Human recombinant MMP-9, 0.211 nM; on Human recombinant MMP-14, 421 nM.

Consider `CC(C)CCOc1ccc(-c2ccc(S(=O)(=O)C3(C(=O)NO)CCOCC3)cc2)cc1` [Example 108], for which the inhibition constant Ki amounted to 2120 nM at Human recombinant MMP-1, 0.497 nM on Human recombinant MMP-2, 2.29 nM on Human recombinant MMP-9 and 744 nM at Human recombinant MMP-14.

Regarding `O=C(NO)C1(S(=O)(=O)c2ccc(-c3ccc(CCO)cc3)cc2)CCOCC1` [Example 98], the Ki on Human recombinant MMP-1 was determined as 990 nM; on Human recombinant MMP-2, 0.158 nM; at Human recombinant MMP-9, 3.1 nM; on Human recombinant MMP-14, 52.6 nM.

In the case of `COCCOc1ccc(-c2ccc(S(=O)(=O)C3(C(=O)NO)CCN(C4CC4)CC3)cc2)cc1` [Example 113], the Ki on Human recombinant MMP-1 came to 2910 nM; at Human recombinant MMP-2, 0.17 nM; on Human recombinant MMP-9 it was 0.732 nM; at Human recombinant MMP-14, 499 nM.

On to `CCOCCOc1ccc(-c2ccc(S(=O)(=O)C3(C(=O)NO)CCN(CCOC)CC3)cc2)cc1` [Example 117], for which the Ki at Human recombinant MMP-1 stood at 4900 nM; on Human recombinant MMP-2, 0.208 nM; on Human recombinant MMP-9, 3.93 nM; on Human recombinant MMP-14, 1110 nM.

For `CCCCc1nc(-c2ccc(S(=O)(=O)C3(C(=O)NO)CCOCC3)cc2)no1` [Example 105], the inhibition constant Ki on Human recombinant MMP-1 was greater than 10000 nM; at Human recombinant MMP-2, 5.79 nM; at Human recombinant MMP-9, 2.15 nM; at Human recombinant MMP-14 it was 1730 nM.

Consider `COCCOc1ccc(-c2ccc(S(=O)(=O)C3(C(=O)NO)CCN(CCOC)CC3)cc2)cc1` [Example 115], for which the Ki at Human recombinant MMP-1 is 3370 nM; on Human recombinant MMP-2 it was 0.276 nM; at Human recombinant MMP-9 it was 1.22 nM; on Human recombinant MMP-14 it was 530 nM.

Consider `COc1ccc(-c2ccc(S(=O)(=O)C3(C(=O)NO)CCOCC3)cc2)cc1F` [Example 102], for which the Ki on Human recombinant MMP-1 worked out at 669 nM; on Human recombinant MMP-2 it was 0.078 nM; on Human recombinant MMP-9, 1.01 nM; at Human recombinant MMP-14, 11.1 nM.

With `CCN1CCC(C(=O)NO)(S(=O)(=O)c2ccc(-c3ccc(OCCOC)cc3)cc2)CC1` [Example 111], the Ki on Human recombinant MMP-1 stood at 7360 nM; on Human recombinant MMP-2, 0.645 nM; at Human recombinant MMP-9, 3.3 nM; on Human recombinant MMP-14, 1790 nM.

Take `COCCOc1ccc(-c2ccc(S(=O)(=O)C3(C(=O)NO)CCN(CCOC)CC3)cc2)cc1F` [Example 114]: the Ki at Human recombinant MMP-1 came to 6550 nM; on Human recombinant MMP-2 it was 0.217 nM; on Human recombinant MMP-9, 2.77 nM; on Human recombinant MMP-14 it was 585 nM.

`COCCOc1ccc(-c2ccc(S(=O)(=O)C3(C(=O)NO)CCN(C4CC4)CC3)cc2)cc1F` [Example 112]: the Ki at Human recombinant MMP-1 worked out at 8580 nM; on Human recombinant MMP-2 it was 0.168 nM; at Human recombinant MMP-9, 2.21 nM; on Human recombinant MMP-14, 681 nM.

`CCOCCOc1ccc(-c2ccc(S(=O)(=O)C3(C(=O)NO)CCN(CC)CC3)cc2)cc1` [Example 116]: the Ki is 8940 nM at Human recombinant MMP-1, 0.514 nM at Human recombinant MMP-2, 9.39 nM on Human recombinant MMP-9 and 2930 nM on Human recombinant MMP-14.

As for `O=C(NO)C1(S(=O)(=O)c2ccc(-c3ccc(-c4ccccc4)cc3)cc2)CCOCC1` [Example 104], the Ki worked out at 6910 nM at Human recombinant MMP-1, 0.087 nM on Human recombinant MMP-2, 0.074 nM on Human recombinant MMP-9 and 247 nM at Human recombinant MMP-14.
